How the values were obtained:
[1] = tested on: AVEFA; assay: Pre-emergence action at 320 g/ha against AVEFA; format: in vivo; details: visual scoring after about 3 weeks vs untreated controls
Excerpt: (§1) b) Seeds of monocotyledonous and dicotyledonous weed plants and crop plants are placed in plastic or organic planting pots and covered with soil. The compounds of the invention, formulated in the form of wettable powders (WP) or as emulsion concentrates (EC), are then applied onto the surface of the covering soil as aqueous suspension or emulsion with addition of 0.5% additive at a water application rate of 600 l/ha (converted). After the treatment, the pots are placed in a greenhouse and kept under good growth conditions for the trial plants. After about 3 weeks, the effect of the preparations is scored visually in comparison with untreated controls as percentages. For example, 100% activity=the plants have died, 0% activity=like control plants. Tables 13 to 26 below show the effects of selected compounds of the general formula (I) on various harmful plants and at an application rate corresponding to 320 g/ha, which were obtained by the experimental procedure mentioned above.

[2] = tested on: DIGSA; assay: Pre-emergence action at 320 g/ha against DIGSA; format: in vivo, Digitaria sanguinalis; details: visual scoring after about 3 weeks vs untreated controls
Excerpt: as §1

[3] = tested on: ECHGC; assay: Pre-emergence action at 320 g/ha against ECHGC; format: in vivo, Echinochloa crus-galli; details: visual scoring after about 3 weeks vs untreated controls
Excerpt: as §1

[4] = tested on: LOLRI; assay: Pre-emergence action at 320 g/ha against LOLRI; format: in vivo, Lolium rigidum; details: visual scoring after about 3 weeks vs untreated controls
Excerpt: as §1

[5] = tested on: SETVI; assay: Pre-emergence action at 320 g/ha against SETVI; format: in vivo, Setaria viridis; details: visual scoring after about 3 weeks vs untreated controls
Excerpt: as §1

[6] = tested on: AMARE; assay: Pre-emergence action at 320 g/ha against AMARE; format: in vivo, Amaranthus retroflexus; details: visual scoring after about 3 weeks vs untreated controls
Method in brief: (§2)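 Effect rated visually (% vs untreated control) about 3 weeks after pre-emergence spraying of WP/EC formulation onto soil; spray carried 0.5% additive at 600 l/ha water.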

[7] = tested on: MATIN; assay: Pre-emergence action at 320 g/ha against MATIN; format: in vivo, Tripleurospermum inodorum (Matricaria inodora); details: visual scoring after about 3 weeks vs untreated controls
Excerpt: as §1

[8] = tested on: POLCO; assay: Pre-emergence action at 320 g/ha against POLCO; format: in vivo, Fallopia convolvulus (Polygonum convolvulus); details: visual scoring after about 3 weeks vs untreated controls
Method in brief: as §2

[9] = tested on: VIOTR; assay: Pre-emergence action at 320 g/ha against VIOTR; format: in vivo, Viola tricolor; details: dosage 320 g/ha
Method in brief: as §2

[10] = tested on: ALOMY; assay: Pre-emergence action at 320 g/ha against ALOMY; format: in vivo, Alopecurus myosuroides; details: scored visually after about 3 weeks vs untreated controls (100% = plants have died)
Method in brief: as §2

[11] = tested on: VERPE; assay: Pre-emergence action at 320 g/ha against VERPE; format: in vivo, Veronica persica; details: visual scoring after about 3 weeks vs untreated controls
Excerpt: as §1

[12] = tested on: ALOMY; assay: Pre-emergence action against ALOMY, 1280 g/ha; format: in vivo, Alopecurus myosuroides; details: visual scoring after about 3 weeks vs untreated controls, 100% = plants have died, 0% = like control plants
Method in brief: (§3)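 Each pot was doubly sown in sandy loam and covered, then its soil surface was treated with compound suspension or emulsion containing 0.5% additive at 600 L/ha water. Plants grew in a greenhouse; effect was rated visually as percentages versus controls after about 3 weeks.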

[13] = tested on: DIGSA; assay: Pre-emergence action against DIGSA, 1280 g/ha; format: in vivo, Digitaria sanguinalis; details: visual scoring after about 3 weeks vs untreated controls, 100% = plants have died, 0% = like control plants
Method in brief: as §3

[14] = tested on: ECHCG; assay: Pre-emergence action against ECHCG, 1280 g/ha; format: in vivo, Echinochloa crus-galli; details: visual scoring after about 3 weeks vs untreated controls, 100% = plants have died, 0% = like control plants
Method in brief: as §3

[15] = tested on: LOLRI; assay: Pre-emergence action against LOLRI, 1280 g/ha; format: in vivo, Lolium rigidum; details: visual scoring after about 3 weeks vs untreated controls, 100% = plants have died, 0% = like control plants
Method in brief: as §3

[16] = tested on: POAAN; assay: Pre-emergence action against POAAN, 1280 g/ha; format: in vivo, Poa annua; details: visual scoring after about 3 weeks vs untreated controls, 100% = plants have died, 0% = like control plants
Method in brief: as §3

[17] = tested on: SETVI; assay: Pre-emergence action against SETVI, 1280 g/ha; format: in vivo, Setaria viridis; details: visual scoring after about 3 weeks vs untreated controls, 100% = plants have died, 0% = like control plants
Method in brief: as §3

[18] = tested on: AMARE; assay: Pre-emergence action against AMARE, 1280 g/ha; format: in vivo, Amaranthus retroflexus; details: scored visually after about 3 weeks vs untreated controls (100% = plants have died)
Method in brief: as §3

[19] = tested on: MATIN; assay: Pre-emergence action against MATIN, 1280 g/ha; format: in vivo, Tripleurospermum inodorum (Matricaria inodora); details: scored visually after about 3 weeks vs untreated controls (100% = plants have died)
Method in brief: as §3

[20] = tested on: STEME; assay: Pre-emergence action against STEME, 1280 g/ha; format: in vivo, Stellaria media; details: scored visually after about 3 weeks vs untreated controls (100% = plants have died)
Method in brief: as §3

[21] = tested on: VERPE; assay: Pre-emergence action against VERPE, 1280 g/ha; format: in vivo, Veronica persica; details: scored visually after about 3 weeks vs untreated controls (100% = plants have died)
Method in brief: as §3

[22] = tested on: ALOMY; assay: Post-emergence action against ALOMY, 1.28 kg/ha; format: in vivo, Alopecurus myosuroides; details: dosage 1280 g/ha, visual rating about 3 weeks after treatment vs untreated controls
Method in brief: (§4)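 Herbicidal action is estimated by eye after about three weeks under optimum greenhouse conditions, on a 0–100% scale against untreated plants. Compounds are applied post-emergence to one-leaf-stage weeds as aqueous WP or EC preparations containing 0.5% additive, sprayed at 600 L/ha.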

[23] = tested on: POAAN; assay: Post-emergence action against POAAN, 1.28 kg/ha; format: in vivo, Poa annua; details: dosage 1280 g/ha, visual rating about 3 weeks after treatment vs untreated controls
Method in brief: as §4

[24] = tested on: AMARE; assay: Post-emergence action against AMARE, 1.28 kg/ha; format: in vivo, Amaranthus retroflexus; details: dosage 1280 g/ha, visual rating about 3 weeks after treatment vs untreated controls (100% = plants died)
Method in brief: as §4

[25] = tested on: KCHSC; assay: Post-emergence action against KCHSC, 1.28 kg/ha; format: in vivo, Bassia scoparia; details: dosage 1280 g/ha, visual rating about 3 weeks after treatment vs untreated controls (100% = plants died)
Method: (§5) • a) Seeds of mono- and dicotyledonous weed plants are placed in plastic pots in sandy loam soil (twin sowing with one species each of mono- or dicotyledonous weed plants per pot), covered with soil and cultivated in a greenhouse under controlled growth conditions. 2 to 3 weeks after sowing, the test plants are treated at the one-leaf stage. The compounds of the invention, formulated in the form of wettable powders (WP) or as emulsion concentrates (EC), are applied to the green parts of the plants as aqueous suspension or emulsion with addition of 0.5% additive at a water application rate equivalent to 600 litres per hectare. After the test plants have been kept in the greenhouse under optimum growth conditions for about 3 weeks, the activity of the preparations is rated visually in comparison to untreated controls. For example, 100% activity=the plants have died, 0% activity=like control plants. As shown by the results, compounds of the general formula (I) of the invention, in post-emergence treatment, have very good herbicidal efficacy (90% to 100% herbicidal action) against harmful plants such as Abutilon theophrasti, Digitaria sanguinalis, Echinochloa crus-galli, Matricaria inodora, Poa annua, at an application rate of 1.28 kg of active substance per hectare.

[26] = tested on: MATIN; assay: Post-emergence action against MATIN, 1.28 kg/ha; format: in vivo, Tripleurospermum inodorum (Matricaria inodora); details: dosage 1280 g/ha, visual rating about 3 weeks after treatment vs untreated controls (100% = plants died)
Method in brief: as §4

[27] = tested on: VERPE; assay: Post-emergence action against VERPE, 1.28 kg/ha; format: in vivo, Veronica persica; details: dosage 1280 g/ha, visual rating about 3 weeks after treatment vs untreated controls (100% = plants died)
Method in brief: as §4

[28] = tested on: DIGSA; assay: Post-emergence action against DIGSA, 1.28 kg/ha; format: in vivo, Digitaria sanguinalis; details: dosage 1280 g/ha, visual rating about 3 weeks after treatment vs untreated controls
Method in brief: as §4

[29] = tested on: ECHCG; assay: Post-emergence action against ECHCG, 1.28 kg/ha; format: in vivo, Echinochloa crus-galli; details: dosage 1280 g/ha, visual rating about 3 weeks after treatment vs untreated controls
Method in brief: as §4

[30] = tested on: SETVI; assay: Post-emergence action against SETVI, 1.28 kg/ha; format: in vivo, Setaria viridis; details: dosage 1280 g/ha, visual rating about 3 weeks after treatment vs untreated controls
Method: as §5

[31] = tested on: ABUTH; assay: Post-emergence action against ABUTH, 1.28 kg/ha; format: in vivo, Abutilon theophrasti; details: dosage 1280 g/ha, visual rating about 3 weeks after treatment vs untreated controls (100% = plants died)
Method in brief: as §4

Structure (SMILES)	Pre-emergence action against AVEFA in % [1]	Pre-emergence action against DIGSA in % [2]	Pre-emergence action against ECHGC in % [3]	Pre-emergence action against LOLRI in % [4]	Pre-emergence action against SETVI in % [5]	Pre-emergence action against AMARE in % [6]	Pre-emergence action against MATIN in % [7]	Pre-emergence action against POLCO in % [8]	Pre-emergence action against VIOTR in % [9]	Pre-emergence action at 320 g/ha against ALOMY in % [10]	Pre-emergence action against VERPE in % [11]	Pre-emergence action against ALOMY [12]	Pre-emergence action against DIGSA [13]	Pre-emergence action against ECHCG [14]	Pre-emergence action against LOLRI [15]	Pre-emergence action against POAAN [16]	Pre-emergence action against SETVI [17]	Pre-emergence action against AMARE [18]	Pre-emergence action against MATIN [19]	Pre-emergence action against STEME [20]	also measured
O=C(O)C(F)Oc1nn(-c2ccccc2F)c(-c2ccc(F)nc2)c1Br (stereo not shown) [VII-057-a]	80%	100%	80%	90%	100%	100%	90%	80%	100%												
COC(=O)C(C)Oc1nn(-c2ccccc2F)c(-c2ccc(F)nc2)c1Br (stereo not shown) [VII-060]	90%	100%	90%	100%	90%	100%	90%	90%	100%	100%	100%										
CCOC(=O)COc1nn(-c2ccc(F)cc2)c(-c2ccc(F)nc2)c1I [VII-102]												90%	100%	100%	100%	100%	100%	90%	90%	90%	Pre-emergence action against VERPE [21]: 100%; Post-emergence action against ALOMY [22]: 100%; Post-emergence action against POAAN [23]: 100%; Post-emergence action against AMARE [24]: 100%; Post-emergence action against KCHSC [25]: 90%; Post-emergence action against MATIN [26]: 100%; Post-emergence action against VERPE [27]: 100%
COC(=O)COc1nn(-c2ccccc2F)c(-c2ccc(F)nc2)c1I [VII-113]	90%		90%	100%	90%	100%	90%	90%	100%	90%	90%										
O=C(COc1nn(-c2ccccc2F)c(-c2ccnc(F)c2)c1Br)OCC1CCOC1 (stereo not shown) [VIII-011]		100%	90%	90%	90%	100%	90%		100%	100%		90%	90%	100%	100%	100%	100%	100%	100%	100%	Pre-emergence action against VERPE [21]: 100%; Post-emergence action against ALOMY [22]: 100%; Post-emergence action against DIGSA [28]: 100%; Post-emergence action against ECHCG [29]: 100%; Post-emergence action against POAAN [23]: 100%; Post-emergence action against SETVI [30]: 100%; Post-emergence action against ABUTH [31]: 90%; Post-emergence action against AMARE [24]: 100%; Post-emergence action against MATIN [26]: 90%; Post-emergence action against VERPE [27]: 100%
